The source of these data is patent US11850334B2, “Immobilised biological entities” (CARMEDA AB, priority 2018, dated 2023).

The assay concerns FXa. The experiment in a line: Anti-FXa activity of heparin fragments in solution, compared with International Standard (Evaluation Method C). It counts as biochemical. Conditions: not immobilized, calculated towards Low Molecular Heparin 2nd International Standard. Here is the method:
Evaluation Method C: Anti-FXa Activity Determination of Heparin Fragments in Solution, Compared with International Standard
The anticoagulant activity of the heparin fragments are determined in an anti-FXa assay. This method measures anti-FXa activity of heparin essentially according to USP<208> Anti-FXa and Anti-FIIa assays for unfractionated and low molecular weight heparins. The method is based on heparin's ability to accelerate antithrombin inhibition of FXa in vitro, where the residual FXa activity is detected using a chromogenic FXa substrate (CS 11(65)). The results expressed as IU/mg (international unit/mg) are calculated using the parallel-line model, towards the Low Molecular Heparin 2nd International Standard.
Anti-FXa activity was determined by Evaluation Method Con example 1.2 (alpha), 1.1 (beta), 2.1, 2.2 and 2.3 (see Table 3). All heparin fragments tested were in solution and not immobilized to a surface.

In the case of “5-Aminopentyl 2-deoxy-2-sulfamido-6-O-sulfo-α-D-glucopyranosyl-(1→4)-β-D-glucopyranosyluronic acid-(1→4)-2-deoxy-2-sulfamido-3,6-di-O-sulfo-α-D-glucopyranosyl-(1→4)-2-O-sulfo-α-L-idopyranosyluronic acid-(1→4)-2-deoxy-2-sulfamido-6-O-sulfo-β-D-glucopyranoside [Example 1.1]”, the anti-FXa activity is recorded as 385 IU/mg. As to `NCCCCCO[C@H]1O[C@H](COS(=O)(=O)O)[C@@H](O[C@@H]2O[C@@H](C(=O)O)[C@@H](O[C@H]3O[C@H](COS(=O)(=O)O)[C@@H](O[C@@H]4O[C@H](C(=O)O)[C@@H](O[C@H]5O[C@H](COS(=O)(=O)O)[C@@H](O)[C@H](O)[C@H]5NS(=O)(=O)O)[C@H](O)[C@H]4O)[C@H](OS(=O)(=O)O)[C@H]3NS(=O)(=O)O)[C@H](O)[C@H]2OS(=O)(=O)O)[C@H](O)[C@H]1NS(=O)(=O)O` [Example 1.2, 5-Aminopentyl 2-deoxy-2-sulfamido-6-O-sulfo-α-D-glucopyranosyl-(1→4)-β-D-glucopyranosyluronic acid-(1→4)-2-deoxy-2-sulfamido-3,6-di-O-sulfo-α-D-glucopyranosyl-(1→4)-2-O-sulfo-α-L-idopyranosyluronic acid-(1→4)-2-deoxy-2-sulfamido-6-O-sulfo-α-D-glucopyranoside], the anti-FXa activity is 330 IU/mg.
